From patent US7943646B2, “Benzamidine derivative, process for the preparation thereof and pharmaceutical composition comprising same” (Dong Wha Pharmaceutical Co., Ltd., priority 2006, dated 2011)

Tested on: osteoclast differentiation
Test: Inhibitory effect on osteoclast differentiation, co-culture of bone marrow cells and osteoblast, TRAP staining
Type: cell-based, mouse
Conditions: Mus musculus, Osteoclast, 168 h, read-out: inhibitory effect on osteoclast differentiation(%)
Protocol: The effect of the benzamidine derivative of the present invention on osteoclast formation and differentiation process was evaluated via co-culture with an osteoblast.
Tibia was aseptically ectomized from male 6 to 8-week-old ddY mice to harvest bone marrow cells by using a syringe (21G, Korea Green Cross). The bone marrow cells were suspended in 5 mL of an α-MEM medium (Gibco BRL Co., added with sodium bicarbonate (2.0 g/L), streptomycin (100 mg/L) and penicillin ([…]), filtered and then sterilized). The harvested cells were centrifuged at 600×g for 5 mins to collect the whole quantity. To remove the red blood cells in the bone marrow cells, 3 mL of Tris HCl (0.83% NH4Cl, pH 7.5) was added and well mixed. After centrifuging above cells, the numbers of the eukaryotic cells in the harvested bone marrow cells were counted and then immediately used for a co-culture system.
The progenitor bone and the parietal bone were aseptically ectomized from 1 to 2-day-old neonate ICR mice, washed with a phosphate butter solution (PBS) and treated with a mixed enzyme solution (of 0.2% collagenase and 0.1% dispase) sequentially (10, 10, 10, 20, 20 and 20 min), and then 3 to 6 groups of the cells which comprise lot of cells having the characteristics of the osteoblast were intensively collected and washed with a medium (a serum-free α-MEM). The washed cells were cultured in the α-MEM medium containing 10% FBS for 2 to 3 days. After subculturing, the collected cells were used for this experiment, and diluted to a concentration of 1×10^6 cells/mL for storage at −70[…].
The benzamidine derivative of the present invention was dissolved in a sterile distilled water or ethanol to dilute to a desired concentration. The final volume of the sample added to the cell culture medium was set at a ratio of 1:1000.
The bone marrow cells prepared in the above 1-1 and the osteoblast were co-cultured for osteoclast differentiation. Both the bone marrow cells (25,000 cells/cm^2) and the osteoblast (10,000 cells/cm^2) were plated in a 96-well plate using α-MEM medium containing FBS, and then cultured with the samples to be tested for 7 days. Differentiation factors, such as dexamethasone (10^−7 M) and vitamin D3 (10^−8 M), were also co-added to the medium from the first day of cultivation. The medium was changed with a fresh media containing a mixture of the samples and the differentiation factors every 2 to 3 days.
TRAP was used as a marker to measure the matured osteoclast in consideration of its characteristics showing a positive reaction to a TRAP staining solution. The TRAP staining solution was prepared in such the manner that 5 mg of naphtol AS-MS phosphate (sigma N-4875) as a substrate, and 25 mg of a coloring agent (Fast Red Violet LB salt) were dissolved in N,N-dimethylformamide (about 0.5 mL). 50 ml of a 0.1 N NaHCO3 buffer solution containing 50 mM tartaric acid (pH 5.0) was added thereto, and the mixture was stored at a refrigerator prior to use as a staining solution.
After culturing the cells for 7 days, the medium was removed from the wells, the cells were once washed with PBS, and then fixed with PBS containing 10% formalin for 2 to 5 min. The cells were fixed again in a mixed solution of ethanol and acetone (1/1) for about 1 min, and dried off. The cells were further treated by the TRAP staining solution for 15 mins and washed with water and dried off. The osteoclasts with 3 or more nuclei showing a TRAP-positive reaction were counted under a microscopic examination. Each of tests was confirmed over at least three times. The inhibitory effect on osteoclast differentiation of each experimental group, relative to negative controls, was expressed as a percentage (%).

SMILES	inhibition at 1 µM
Cc1nc(-c2ccc(OCCCCCOc3ccc(C(=N)NO)cc3)cc2)c(CCNCCN2CCOCC2)s1 [Example 4, N-hydroxy-4-[5-(4-{2-methyl-5-[2-(2-morpholin-4-yl-ethylamino)-ethyl]-thiazol-4-yl}-phenoxy)-pentyloxy]-benzamidine]	72.8%
CC(C)c1nc(-c2ccc(OCCCCCOc3ccc(C(=N)NO)cc3)cc2)c(CCNCCCn2ccnc2)s1 [Example 31, N-hydroxy-4-[5-(4-{5-[2-(3-imidazol-1-yl-propylamino)-ethyl]-2-isopropyl-thiazol-4-yl}-phenoxy)-pentyloxy]-benzamidine]	97%
N=C(NO)c1ccc(OCCCCCOc2ccc(-c3nc(N)sc3CCN3CCOCC3)cc2)cc1 [Example 16, N-hydroxy-4-(5-{4-[2-amino-5-(2-morpholin-4-yl-ethyl)-thiazol-4-yl]-phenoxy}-pentyloxy)-benzamidine]	51%
Cc1nc(-c2ccc(OCCCCCOc3ccc(C(=N)NO)cc3)cc2)c(CCNCCN(C)C)s1 [Example 17, N-hydroxy-4-[5-(4-{5-[2-(2-dimethylamino-ethylamino)-ethyl]-2-methyl-thiazol-4-yl}-phenoxy)-pentyloxy]-benzamidine]	40%
Cc1nc(-c2ccc(OCCCCCOc3ccc(C(=N)NO)cc3)cc2)c(CCn2ccnc2)s1 [Example 9, N-hydroxy-4-(5-{4-[5-(2-imidazol-1-yl-ethyl)-2-methyl-thiazol-4-yl]-phenoxy}-pentyloxy)-benzamidine]	91.7%

Same assay, conditions: Mus musculus, Osteoclast, 168 h; 1 μm; 7 days co-culture; TRAP-positive osteoclasts with 3 or more nuclei, relative to negative controls; read-out: inhibitory effect on osteoclast differentiation(%)

SMILES	inhibition at 1 µM
CN1CCN(CCc2sc(N3CCOCC3)nc2-c2ccc(OCCCCCOc3ccc(C(=N)NO)cc3)cc2)CC1 [Example 61, N-hydroxy-4-[5-(4-{5-[2-(4-methyl-piperazin-1-yl)-ethyl]-2-morpholin-4-yl-thiazol-4-yl}-phenoxy)-pentyloxy]-benzamidine]	76%
Cc1nc(-c2ccc(OCCCCCOc3ccc(C(=N)NO)cc3)cc2)c(CCNC2CCCCC2)s1 [Example 10, N-hydroxy-4-(5-{4-[5-(2-cyclohexylamino-ethyl)-2-methyl-thiazol-4-yl]-phenoxy}-pentyloxy)-benzamidine]	55%
Cc1nc(-c2ccc(OCCCCCOc3ccc(C(=N)NO)cc3)cc2)c(CCNCCCn2ccnc2)s1 [Example 5, N-hydroxy-4-[5-(4-{5-[2-(3-imidazol-1-yl-propylamino)-ethyl]-2-methyl-thiazol-4-yl}-phenoxy)-pentyloxy]-benzamidine]	93.5%
N=C(NO)c1ccc(OCCCCCOc2ccc(-c3nc(N4CCOCC4)sc3CCN3CCSCC3)cc2)cc1 [Example 60, N-hydroxy-4-(5-{4-[2-morpholin-4-yl-5-(2-thiomorpholin-4-yl-ethyl)-thiazol-4-yl]-phenoxy}-pentyloxy)-benzamidine]	88%
CC(C)c1nc(-c2ccc(OCCCCCOc3ccc(C(=N)NO)cc3)cc2)c(CCNCCN2CCOCC2)s1 [Example 30, N-hydroxy-4-[5-(4-{2-isopropyl-5-[2-(2-morpholin-4-yl-ethylamino)-ethyl]-thiazol-4-yl}-phenoxy)-pentyloxy]-benzamidine]	78%
Cc1nc(-c2ccc(OCCCCCOc3ccc(C(=N)NO)cc3)cc2)c(C(=O)NCCCn2ccnc2)s1 [Example 71, N-hydroxy-4-{5-[4-(5-{3-imidazol-1-yl-propylcarbamoyl}-2-methyl-thiazol-4-yl)-phenoxy]-pentyloxy}-benzamidine]	90.4%
